IC50 and inhibition data for 47 compounds are collected here from US5366982A (priority 1990, dated 1994).

Test [1] deals with guinea-pig pulmonary parenchyma. Put plainly: L. Parenchyma: guinea-pig pulmonary parenchyma contraction antagonism induced by LTB4 (Sirois). It is filed as cell-based. The settings on record: Cavia porcellus, read-out: IC50 L. Parenchyma. Here is the method:
Further, compounds of this invention are shown to be leukotriene B4 antagonists in the technique of guinea-pig pulmonary parenchyma contraction antagonism induced by LTB4 described by P. Sirois et al., Pharmacology, 31, 225-236 (1985). In this technique, products are active at concentrations of between about 1 to about 10,000 nM.

Test [2] addresses leukotriene B4 receptors (Cavia porcellus, UniProt H0VYV8). Put plainly: biochemical. It is filed as binding, guinea-pig. The settings on record: for IC50: Table XIX, guinea-pig spleen membranes, tritium-labelled LTB4, read-out: IC50 Binding (Cheng); for inhibition at 10 µM: read-out: Binding (Cheng) % Inhibition at 10 μM.
[3] abbreviates: Table XIX, guinea-pig pulmonary parenchyma contraction induced by LTB4.

Like-named read-outs stand apart in the source and are kept apart here.

leukotriene B4 receptors, sequence (H0VYV8 1-348): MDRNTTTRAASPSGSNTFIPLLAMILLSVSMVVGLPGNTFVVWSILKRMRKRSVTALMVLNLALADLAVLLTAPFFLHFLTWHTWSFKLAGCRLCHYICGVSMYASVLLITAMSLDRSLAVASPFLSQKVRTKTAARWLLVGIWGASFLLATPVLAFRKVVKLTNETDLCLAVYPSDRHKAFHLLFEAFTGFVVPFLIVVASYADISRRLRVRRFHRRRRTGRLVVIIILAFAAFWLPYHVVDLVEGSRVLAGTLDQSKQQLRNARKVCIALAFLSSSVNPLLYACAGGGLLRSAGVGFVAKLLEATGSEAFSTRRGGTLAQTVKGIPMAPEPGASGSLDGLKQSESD

A word on the IC50: it is the concentration needed to halve the response being measured. As for `O=C(O)CCCCCOc1cc(-c2ccccc2)cc(-c2ccccc2Cl)n1`, the concentration for half-maximal inhibition (IC50) in test [1] was 0.2 µM; in test [2] it was 0.0018 µM.

Turning to `CC(C)(CCCCOc1cc(-c2ccccc2)cc(-c2ccccc2)n1)C(=O)O` [2,2-dimethyl-6-[(4,6-diphenyl-2-pyridyl)oxy]hexanoic acid], the IC50 in test [1] (setting [3]) worked out at 0.01 µM. On the same count and under the same terms, the result for `CC(C)(CCCCOc1cc(-c2ccc3c(c2)OCO3)cc(-c2ccccc2)n1)C(=O)O` [2,2-dimethyl-6-{[4-(3,4-methylenedioxyphenyl)-6-phenyl-2-pyridyl]oxy}hexanoic acid] reads 0.14 µM. As for `CC(C)(CCCCCOc1cc(-c2ccccc2)cc(-c2ccccc2)n1)C(=O)O` [2,2-dimethyl-7-[(4,6-diphenyl-2-pyridyl)oxy]heptanoic acid], the IC50 in test [1] (setting [3]) was 0.03 µM. The same measure, in the same setting: the result for `CC(CCCCOc1cc(-c2cccc(Cl)c2)cc(-c2ccccc2)n1)C(=O)O` (stereo not drawn) [2-methyl-6-{[4-(3-chlorophenyl)-6-phenyl-2-pyridyl]oxy}hexanoic acid] reads 1 µM; that for `COc1cccc(-c2cc(OCCCCC(C)C(=O)O)nc(-c3ccccc3)c2)c1` (stereo not drawn) [2-methyl-6-{[4-(3-methoxyphenyl)-6-phenyl-2-pyridyl]oxy}hexanoic acid], 0.02 µM. With `CC(CCCCOc1cc(-c2ccc(N)cc2)cc(-c2ccccc2)n1)C(=O)O` (stereo not drawn) [2-methyl-6-{[4-(4-aminophenyl)-6-phenyl-2-pyridyl]oxy}hexanoic acid], the IC50 in test [1] (setting [3]) was 0.02 µM. In the case of `CC(CCCCOc1cc(-c2ccc(Cl)cc2)cc(-c2ccccc2)n1)C(=O)O` (stereo not drawn) [2-methyl-6-{[4-(4-chlorophenyl)-6-phenyl-2-pyridyl]oxy}hexanoic acid], the half-inhibitory concentration (IC50) in test [1] (setting [3]) is 0.07 µM.

As to `COc1ccc(-c2cc(OCCCCC(C)C(=O)O)nc(-c3ccccc3)c2)cc1` (stereo not drawn) [2-methyl-6-{[4-(4-methoxyphenyl)-6-phenyl-2-pyridyl]oxy}hexanoic acid], the IC50 in test [1] (setting [3]) stood at 0.02 µM. For the compound `Cc1ccc(-c2cc(OCCCCC(C)C(=O)O)nc(-c3ccccc3)c2)cc1` (stereo not drawn) [2-methyl-6-{[4-(4-methylphenyl)-6-phenyl-2-pyridyl]oxy}hexanoic acid], in test [1] (setting [3]), the IC50 stood at 0.02 µM. As to `c1ccc(-c2cc(OCCCCCc3nn[nH]n3)nc(-c3ccccc3)c2)cc1` [5-{[5-(4,6-diphenyl-2-pyridyl)oxy]pentyl}-[1H]-tetrazole], the IC50 in test [1] (setting [3]) amounted to 0.01 µM.

As for `COc1ccc(-c2cc(OCCCCCC(=O)O)nc(-c3ccc(OC)cc3)c2)cc1` [6-{[4,6-di(4-methoxyphenyl)-2-pyridyl]oxy}hexanoic acid], the IC50 in test [2] amounted to 3 µM.

Turning to `O=C(O)CCCCCOc1cc(-c2ccccc2Cl)cc(-c2ccccc2)n1` [6-{[4-(2-chlorophenyl)-6-phenyl-2-pyridyl]oxy}hexanoic acid], the 50% inhibitory concentration (IC50) in test [2] turned out to be 0.2 µM. In the case of `O=C(O)CCCCCOc1cc(-c2ccccc2F)cc(-c2ccccc2)n1` [6-{[4-(2-fluorophenyl)-6-phenyl-2-pyridyl]oxy}hexanoic acid], the 50% inhibitory concentration (IC50) in test [1] (setting [3]) worked out at 1.7 µM. A word on the inhibition: it is how much of the control response was suppressed. `COc1ccccc1-c1cc(OCCCCC(C)(C)C(=O)O)nc2ccccc12` [6-{[4-(2-methoxyphenyl)-2-quinolyl]oxy}-2,2-dimethylhexanoic acid]: in test [2], the inhibition at 10 µM was 36%. Turning to `O=C(O)CCCCCOc1cc(-c2cc(Cl)cc(Cl)c2)cc(-c2ccccc2)n1` [6-{[4-(3,5-dichlorophenyl)-6-phenyl-2-pyridyl]oxy}hexanoic acid], the IC50 in test [2] amounted to 0.5 µM. As for `Nc1cccc(-c2cc(OCCCCCC(=O)O)nc(-c3ccccc3)c2)c1` [6-{[4-(3-aminophenyl)-6-phenyl-2-pyridyl]oxy}hexanoic acid], in test [2], the IC50 came to 0.012 µM. The same measure, in the same setting: the result for `O=C(O)CCCCCOc1cc(-c2cccc(Cl)c2)cc(-c2ccccc2)n1` [6-{[4-(3-chlorophenyl)-6-phenyl-2-pyridyl]oxy}hexanoic acid] reads 0.004 µM; that for `Cc1cccc(-c2cc(OCCCCCC(=O)O)nc(-c3ccccc3)c2)c1` [6-{[4-(3-methylphenyl)-6-phenyl-2-pyridyl]oxy}hexanoic acid], 0.015 µM.

As to `Nc1ccc(-c2cc(OCCCCCC(=O)O)nc(-c3ccccc3)c2)cc1` [6-{[4-(4-aminophenyl)-6-phenyl-2-pyridyl]oxy}hexanoic acid], in test [1] (setting [3]), the IC50 turned out to be 0.04 µM. As for `O=C(O)CCCCCOc1cc(-c2ccc(NC(=O)c3ccccc3)cc2)cc(-c2ccccc2)n1` [6-{[4-(4-benzamidophenyl)-6-phenyl-2-pyridyl]oxy}hexanoic acid], the IC50 in test [2] was 4 µM. On to `CC(C)(CCCCOc1cc(-c2ccc(Cl)cc2)ccn1)C(=O)O` [6-{[4-(4-chlorophenyl)-2-pyridyl]oxy}-2,2-dimethylhexanoic acid], for which the IC50 in test [2] amounted to 0.02 µM. Same read-out and setting: the result for `O=C(O)CCCCCOc1cc(-c2ccc(Cl)cc2)c2ccccc2n1` [6-{[4-(4-chlorophenyl)-2-quinolyl]oxy}hexanoic acid] reads 0.03 µM; that for `COc1ccc(-c2cc(-c3ccc(Cl)cc3)cc(OCCCCCC(=O)O)n2)cc1` [6-{[4-(4-chlorophenyl)-6-(4-methoxyphenyl)-2-pyridyl]oxy}hexanoic acid], 1.7 µM.

On to `CN(C)c1ccc(-c2cc(OCCCCCC(=O)O)nc(-c3ccccc3)c2)cc1` [6-{[4-(4-dimethylaminophenyl)-6-phenyl-2-pyridyl]oxy}hexanoic acid], for which the IC50 in test [1] (setting [3]) was found to be 6 µM. As to `CNc1ccc(-c2cc(OCCCCC(C)(C)C(=O)O)nc(-c3ccccc3)c2)cc1` [6-{[4-(4-methylaminophenyl)-6-phenyl-2-pyridyl]oxy}-2,2-dimethylhexanoic acid], the IC50 in test [2] came out at 0.008 µM. Take `CNc1ccc(-c2cc(OCCCCCC(=O)O)nc(-c3ccccc3)c2)cc1` [6-{[4-(4-methylaminophenyl)-6-phenyl-2-pyridyl]oxy}hexanoic acid]: in test [1] (setting [3]), the IC50 came out at 0.15 µM. As to `O=C(O)CCCCCOc1cc(-c2ccc([N+](=O)[O-])cc2)cc(-c2ccccc2)n1` [6-{[4-(4-nitrophenyl)-6-phenyl-2-pyridyl]oxy}hexanoic acid], the half-inhibitory concentration (IC50) in test [2] was 0.05 µM. With `O=C(O)CCCCCOc1cc(-c2ccc(NC(=O)C(F)(F)F)cc2)cc(-c2ccccc2)n1` [6-{[4-(4-trifluoroacetamidophenyl)-6-phenyl-2-pyridyl]oxy}hexanoic acid], in test [2], the IC50 came to 0.15 µM. Take `COc1ccc(-c2ccc(OCCCCCC(=O)O)nc2-c2ccc(OC)cc2)cc1` [6-{[5,6-bis-(4-methoxyphenyl)-2-pyridyl]oxy}hexanoic acid]: the inhibition at 10 µM in test [2] was 37%. For the compound `CC(CCCCOc1cc(-c2ccc3c(c2)OCO3)cc(-c2ccccc2Cl)n1)C(=O)O` (stereo not drawn) [6-{[6-(2-chlorophenyl)-4-(3,4-methylenedioxyphenyl)-2-pyridyl]oxy}-2-methylhexanoic acid], the half-maximal inhibitory concentration (IC50) in test [2] stood at 0.002 µM. Same read-out and setting: the result for `O=C(O)CCCCCOc1cc(-c2ccccc2)cc(-c2ccc(Cl)cc2)n1` [6-{[6-(4-chlorophenyl)-4-phenyl-2-pyridyl]oxy}hexanoic acid] reads 1 µM; that for `COc1ccc(-c2cc(-c3ccccc3)cc(OCCCCCC(=O)O)n2)cc1` [6-{[6-(4-methoxyphenyl)-4-phenyl-2-pyridyl]oxy}hexanoic acid], 1 µM. In the case of `Cc1ccc(-c2cc(-c3ccccc3)cc(OCCCCCC(=O)O)n2)cc1` [6-{[6-(4-methylphenyl)-4-phenyl-2-pyridyl]oxy}hexanoic acid], the IC50 in test [2] worked out at 0.3 µM.

On to `COc1ccc(-c2cc(OCCCCCC(=O)O)nc(-c3ccccc3)c2)cc1OC` [6-{[6-phenyl-4-(3,4-dimethoxyphenyl)-2-pyridyl]oxy]hexanoic acid], for which, in test [2], the inhibition at 10 µM turned out to be 21%. For `COc1cc(OC)cc(-c2cc(OCCCCCC(=O)O)nc(-c3ccccc3)c2)c1` [6-{[6-phenyl-4-(3,5-dimethoxyphenyl)-2-pyridyl]oxy}hexanoic acid], the inhibition at 10 µM in test [2] stood at 50%. As to `O=C(O)CCCCCOc1cc(-c2ccc(C(=O)O)cc2)cc(-c2ccccc2)n1` [6-{[6-phenyl-4-(4-carboxyphenyl)-2-pyridyl]oxy}hexanoic acid], the inhibition at 10 µM in test [2] amounted to 32%.

Turning to `O=C(O)CCCCC=Cc1cccc(Cc2ccccc2)c1` [7-(3-benzyl-phenyl)6-heptenoic acid, 7-(3-benzyl-phenyl)-6-heptenoic acid], the IC50 in test [2] was found to be 10 µM. Still for that read-out and setting: the result for `O=C(O)CCCCCCc1cccc(Cc2ccccc2)c1` [7-(3-benzylphenyl)heptanoic acid, 7-(3-benzyl-phenyl)heptanoic acid] reads 7 µM.

With `O=C(O)CCCCCCOc1ncc(-c2ccccc2)c(-c2ccccc2)n1` [7-(4,5-diphenyl-2-pyrimidyloxy)heptanoic acid], the inhibition at 10 µM in test [2] is 22%. Same read-out and setting: the result for `O=C(O)CCCCC=Cc1cc(-c2ccccc2)c2ccccc2n1` [7-(4-phenyl-2-quinolyl)-6-hepten-1-oic acid] reads 27%. For the compound `O=C(O)CCCCCCOc1cc(-c2ccccc2)c2ccccc2n1` [7-[(4-phenyl-2-quinolyl)oxy]heptanoic acid], the IC50 in test [2] was determined as 1.8 µM. On the same count and under the same terms, the result for `O=C(O)CCCCCCCOc1ncc(-c2ccccc2)c(-c2ccccc2)n1` [8-(4,5-diphenyl-2-pyrimidyloxy)octanoic acid] reads 8.5 µM. Same read-out and setting: the result for `COc1ccc(-c2ccc(OCCCCCCCC(=O)O)nc2-c2ccc(OC)cc2)cc1` [8-{[5,6-bis-(4-methoxyphenyl)-2-pyridyl]oxy}octanoic acid] reads 3 µM; that for `O=C(O)CNC(=O)CCCOc1cc(-c2ccccc2)cc(-c2ccccc2)n1` [N-[4-(4,6-diphenyl-2-pyridyloxy)butanoyl]glycine], 0.016 µM; that for `CCOC(=O)CCCCCOc1cc(-c2ccccc2)cc(-c2ccc(Cl)cc2)n1` [ethyl 6-{[6-(4-chlorophenyl)-4-phenyl-2-pyridyl]oxy}hexanoate], 5 µM. Consider `O=C(O)CCCCCCCSc1cc(-c2ccccc2)c2ccccc2n1` [sodium 8-[(4-phenyl-2-quinolyl)thio]octanoate], for which the inhibition at 10 µM in test [2] came out at 31%.
